Columns and labels:
[1] = target: human recombinant D3 receptor (Homo sapiens (Human), UniProt P35462); test: Test of binding inhibition for dopamine D3 receptor; conditions: Jump-In HEK cell membranes, 2 nM [3H]-Methylspiperone, 120 min at 25° C.; read-out: hD3_Ki
Protocol: Test Example 1: Test of Binding Inhibition for Dopamine D3 Receptor
(§1) (Experimental Conditions)
Cell membranes: Jump-In HEK cell membranes expressing human recombinant D3 receptor (4 μg/well)
(§2) Buffer solution: 50 mM Tris-HCl (35409-45, Nacalai Tesque) (pH 7.4) containing 120 mM NaCl (31320-05, Nacalai Tesque), 1 mM MgCl2.6H2O (20909-55, Nacalai Tesque), 5 mM KCl (28514-75, Nacalai Tesque) and 2 mM CaCl2 (067-31, NAKARAI CHEMICALS, LTD.)
Radioligand: (final concentration) 2 nM [^3H]-Methylspiperone ([^3H—N-methyl-]-Methylspiperone, NET-856, 83.8 Ci/mmol, PerkinElmer)
Non-specific ligand: (final concentration) 10 μM Butaclamol [(+)-Butaclamol Hydrochloride, D033, Sigma]
(§3) SPA beads solution: SPA beads [WGA PVT SPA Scintillation Beads, RPNQ0001 (500 mg), RPNQ0060 (2 g), PerkinElmer] (0.2 mg/well)
(§4) Incubation time and temperature: 120 min at 25° C.
(§5) Butaclamol or the compounds of the present invention were weighed and DMSO was added to make a 10 mM solution. This solution was diluted to each concentration.
[^3H]-Methylspiperone was weighed and the buffer solution was added to make a 6 nM solution.
(§6) SPA beads were weighed and stirred in water to make a 50 mg/mL solution. Using this solution, a mixture with the cell membranes was prepared.
(§7) 225 nL of the solutions of the non-specific ligand or the compounds of the present invention at each concentration (in case of vehicle, final concentration 0.3% DMSO) were added in each well of a 384-well white/clear bottom microplate (3706, Corning). Jump-In HEK Cell membranes (final reaction amount: 4 μg protein/well), the SPA beads solution (final reaction amount: 0.2 mg/well) and the buffer solution were mixed and the mixed solution was left still for 1 hour or more at 4° C. Then, 50 μL of the mixture was added to each well of the plate. In addition, 25 μL of 6 nM [^3H]-Methylspiperone (final concentration: 2 nM) was added to each well. The plate was sealed by putting TopSeal-A 96/384 well (6050185, PerkinElmer, Inc.) on the top of the plate, mixed using stirring deaerator (Well Tornado, FK-62, Sakaki-elc.) and incubated for 120 min at 25° C. After incubation, the radioactivity of [^3H]-Methylspiperone which was bonded to D3 receptor was determined by liquid scintillation counter (1450 Microbeta, PerkinElmer) in each well. Non-specific binding was calculated based on the radioactivity of [^3H]-Methylspiperone in the presence of 10 μM non-labeled Butaclamol. The total binding was calculated using the radioactivity of [^3H]-Methylspiperone in the absence of the compounds of the present invention (vehicle). The Ki values were calculated from dose-response curves.
(§8) Binding activities of the compounds of the present invention were calculated from the following Binding Inhibition Rate (%): Inhibition Rate(%)=[1−(c−a)/(b−a)]×100 • a: Average cpm of non-specific binding • b: Average cpm of total binding • c: Cpm in the presence of each test compound

[2] = target: human recombinant D2 receptor (Homo sapiens (Human), UniProt P14416); test: Test of binding inhibition for dopamine D2 receptor; conditions: Jump-In HEK cell membranes, 1.2 nM [3H]-Methylspiperone, 120 min at 25° C.; read-out: hD2_Ki
Chain of human recombinant D2 receptor (P14416 whole entry): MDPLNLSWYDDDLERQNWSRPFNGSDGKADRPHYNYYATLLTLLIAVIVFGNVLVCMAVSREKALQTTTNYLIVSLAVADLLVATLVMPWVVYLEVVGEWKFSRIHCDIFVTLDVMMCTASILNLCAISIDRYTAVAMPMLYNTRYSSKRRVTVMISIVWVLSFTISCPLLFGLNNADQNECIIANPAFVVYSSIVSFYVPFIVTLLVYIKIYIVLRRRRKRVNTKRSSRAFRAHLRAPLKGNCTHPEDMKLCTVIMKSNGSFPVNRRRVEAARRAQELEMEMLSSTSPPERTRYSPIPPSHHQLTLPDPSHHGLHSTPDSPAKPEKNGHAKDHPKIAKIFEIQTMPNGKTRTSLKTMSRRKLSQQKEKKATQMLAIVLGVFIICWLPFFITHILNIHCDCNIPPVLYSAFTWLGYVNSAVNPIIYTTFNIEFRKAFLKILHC
Protocol: Test Example 2: Test of Binding Inhibition for Dopamine D2 Receptor
as §1
Cell membranes: Jump-In HEK cell membranes expressing human recombinant D2 receptor (2 μg/well)
as §2
Radioligand: (final concentration) 1.2 nM [^3H]-Methylspiperone ([^3H—N-methyl-]-Methylspiperone, NET-856, 83.8 Ci/mmol, PerkinElmer)
Non-specific ligand: (final concentration) 10 μM Butaclamol [(+)-Butaclamol Hydrochloride, D033; Sigma]
as §3, §4, §5
[^3H]-Methylspiperone was weighed and the buffer solution was added to make a 3.6 nM solution.
as §6
as §7, with “amount: 2” for “amount: 4”, “SPA bead” for “SPA beads”, “of 3.6” for “of 6”, “concentration: 1.2” for “concentration: 2”, “(6050185, PerkinElmer)” for “(6050185, PerkinElmer, Inc.)”, “to D2” for “to D3”
as §8

Chain of human recombinant D3 receptor (P35462 whole entry): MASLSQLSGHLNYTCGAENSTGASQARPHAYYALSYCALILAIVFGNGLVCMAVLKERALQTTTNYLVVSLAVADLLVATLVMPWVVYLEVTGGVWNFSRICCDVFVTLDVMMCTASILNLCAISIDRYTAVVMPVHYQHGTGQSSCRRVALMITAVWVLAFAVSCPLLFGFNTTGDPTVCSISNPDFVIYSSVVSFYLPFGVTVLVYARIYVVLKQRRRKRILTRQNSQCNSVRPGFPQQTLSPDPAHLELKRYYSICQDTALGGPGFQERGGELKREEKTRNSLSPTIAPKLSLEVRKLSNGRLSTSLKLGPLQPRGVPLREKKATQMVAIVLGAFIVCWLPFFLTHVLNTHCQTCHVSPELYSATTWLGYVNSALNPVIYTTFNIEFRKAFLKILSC

Cc1cnc(CC(=O)N[C@H]2CC[C@H](CCN3C[C@@H]4C[C@]4(c4cc(C(C)(F)F)on4)C3)CC2)o1 [Compound I-040]
Ki [1]: 0.56 nM
Ki [2]: 350 nM

Cc1ncc(CC(=O)N[C@H]2CC[C@H](CCN3C[C@@H]4C[C@]4(c4cc(C(C)(F)F)on4)C3)CC2)o1 [Compound I-041]
Ki [1]: 0.28 nM
Ki [2]: 240 nM

Cc1cc(CC(=O)N[C@H]2CC[C@H](CCN3C[C@@H]4C[C@]4(c4cc(C(C)(F)F)on4)C3)CC2)on1 [Compound I-042]
Ki [1]: 0.061 nM
Ki [2]: 1300 nM

Cn1cc(CC(=O)N[C@H]2CC[C@H](CCN3C[C@@H]4C[C@]4(c4cc(C(C)(F)F)on4)C3)CC2)cn1 [Compound I-043]
Ki [1]: 0.45 nM
Ki [2]: 270 nM

Cn1cc(OCC(=O)N[C@H]2CC[C@H](CCN3C[C@@H]4C[C@]4(c4cc(C(C)(F)F)on4)C3)CC2)cn1 [Compound I-044]
Ki [1]: 0.83 nM
Ki [2]: 220 nM

CN1Cc2c(C(=O)N[C@H]3CC[C@H](CCN4C[C@@H]5C[C@]5(c5cc(C(C)(F)F)on5)C4)CC3)cccc2C1=O [Compound I-045]
Ki [1]: 0.13 nM
Ki [2]: 86 nM

CCc1cc([C@]23C[C@H]2CN(CC[C@H]2CC[C@H](NC(=O)c4cccnc4C)CC2)C3)no1 [Compound I-047]
Ki [1]: 1.4 nM
Ki [2]: 530 nM

CCc1cc([C@]23C[C@H]2CN(CC[C@H]2CC[C@H](NC(=O)COc4cnn(C)c4)CC2)C3)no1 [Compound I-048]
Ki [1]: 0.71 nM
Ki [2]: 550 nM

CCc1cc([C@]23C[C@H]2CN(CC[C@H]2CC[C@H](NC(=O)COc4cnc(C)nc4)CC2)C3)no1 [Compound I-049]
Ki [1]: 0.44 nM
Ki [2]: 830 nM

CCc1cc([C@]23C[C@H]2CN(CC[C@H]2CC[C@H](NC(=O)c4ccc(F)c5nn(C)cc45)CC2)C3)no1 [Compound I-050]
Ki [1]: 0.42 nM
Ki [2]: 200 nM

CCc1cc([C@]23C[C@H]2CN(CC[C@H]2CC[C@H](NC(=O)/C=C/c4cnc(C)nc4)CC2)C3)no1 [Compound I-051]
Ki [1]: 0.3 nM
Ki [2]: 380 nM

CCc1cc([C@]23C[C@H]2CN(CC[C@H]2CC[C@H](NC(=O)Cc4ncc(C)o4)CC2)C3)no1 [Compound I-054]
Ki [1]: 1.2 nM
Ki [2]: 780 nM

CCc1cc([C@]23C[C@H]2CN(CC[C@H]2CC[C@H](NC(=O)Cc4cc(C)no4)CC2)C3)no1 [Compound I-055]
Ki [1]: 0.23 nM
Ki [2]: 850 nM

CCc1cc([C@]23C[C@H]2CN(CC[C@H]2CC[C@H](NC(=O)Cc4cnn(C)c4)CC2)C3)no1 [Compound I-056]
Ki [1]: 0.62 nM
Ki [2]: 1000 nM

CCc1cc([C@]23C[C@H]2CN(CC[C@H]2CC[C@H](NC(=O)c4cccn5nccc45)CC2)C3)no1 [Compound I-057]
Ki [1]: 0.47 nM
Ki [2]: 230 nM

CCc1cc([C@]23C[C@H]2CN(CC[C@H]2CC[C@H](NC(=O)Cc4noc(C)n4)CC2)C3)no1 [Compound I-058]
Ki [1]: 1.3 nM
Ki [2]: 790 nM

CCc1cc([C@]23C[C@H]2CN(CC[C@H]2CC[C@H](NC(=O)Cc4nnc(C)s4)CC2)C3)no1 [Compound I-059]
Ki [1]: 0.77 nM
Ki [2]: 550 nM

Cn1cc2c(C(=O)N[C@H]3CC[C@](F)(CCN4C[C@@H]5C[C@]5(c5cc(C(C)(F)F)on5)C4)CC3)cccc2n1 [II-1]
Ki [1]: 0.42 nM
Ki [2]: > 2300 nM

Cn1cc2c(C(=O)N[C@H]3CC[C@H](CCN4CC5CC5(c5cc(C6CC6)on5)C4)CC3)cccc2n1 (some centres unmarked) [II-2]
Ki [1]: 0.2 nM
Ki [2]: 380 nM

Cn1cc(CC(=O)N[C@H]2CC[C@H](CCN3C[C@@H]4C[C@]4(c4cc(C5CC5)on4)C3)CC2)cn1 [II-3]
Ki [1]: 0.36 nM
Ki [2]: 730 nM

Cc1ncc(OCC(=O)N[C@H]2CC[C@H](CCN3C[C@@H]4C[C@]4(c4cc(C5CC5)on4)C3)CC2)cn1 [II-4]
Ki [1]: 0.45 nM
Ki [2]: 730 nM

Cn1ncc(CC(=O)N[C@H]2CC[C@H](CCN3C[C@@H]4C[C@]4(c4cc(C5CC5)on4)C3)CC2)n1 [II-5]
Ki [1]: 0.71 nM
Ki [2]: 860 nM

Reference: patent publication US11447484B2, “Cyclic compound having dopamine D3 receptor antagonistic effect” (Shionogi & Co., Ltd., priority 2018, dated 2022)
